Holding throughout (type): cell-based
One test addresses T1, human PPAR γ (Homo sapiens, UniProt P37231).
T1 sequence (P37231 1-505): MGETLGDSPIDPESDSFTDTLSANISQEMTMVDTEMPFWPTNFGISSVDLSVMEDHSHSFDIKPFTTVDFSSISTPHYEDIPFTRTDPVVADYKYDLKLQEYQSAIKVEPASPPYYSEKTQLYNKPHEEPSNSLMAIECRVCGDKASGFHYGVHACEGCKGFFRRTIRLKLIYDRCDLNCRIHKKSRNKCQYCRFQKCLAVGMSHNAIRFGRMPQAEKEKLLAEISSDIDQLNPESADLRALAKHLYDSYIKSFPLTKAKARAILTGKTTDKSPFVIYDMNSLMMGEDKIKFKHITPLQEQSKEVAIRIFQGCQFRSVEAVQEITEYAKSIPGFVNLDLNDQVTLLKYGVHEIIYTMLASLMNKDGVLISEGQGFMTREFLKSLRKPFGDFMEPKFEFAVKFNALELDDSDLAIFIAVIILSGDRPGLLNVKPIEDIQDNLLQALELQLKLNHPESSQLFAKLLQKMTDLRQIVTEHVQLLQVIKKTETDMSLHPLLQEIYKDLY
As to the kind of experiment: Human PPARγ reporter assay (Indigo Biosciences kit). As for the experimental part:
(§1) Target Selectivity Assays
(§2) To determine species selectivity, a Mouse PPARα Reporter Assay System was used (Indigo Biosciences, Cat. #M00111). Activity of test compounds to antagonize or agonize other isoforms of human PPAR, for example β/δ and γ, were assessed using the corresponding kits from Indigo Biosciences (Cat. #IB00121 and #IB00101, respectively). In addition to PPAR activity, compounds were also screened for activity against other nuclear hormone receptors including Estrogen Receptor β, Glucocorticoid Receptor and Thyroid Receptor β using commercially available kits (Indigo Biosciences, Cat. #IB00411, IB00201 and IB01101, respectively). Each assay system from Indigo Biosciences uses technology analogous to the human PPARα kit, with the variance being that the cells used for each assay were engineered to over-express the receptor of interest. In addition, the appropriate receptor agonist (included with each kit) was used at ˜EC80 for assays in which antagonist potency was being assessed.

For a further test, the target named is T2, Human PPARα (Homo sapiens, UniProt Q07869).
T2 construct: host or cells: proprietary non-human mammalian cells
T2 sequence (Q07869 1-468): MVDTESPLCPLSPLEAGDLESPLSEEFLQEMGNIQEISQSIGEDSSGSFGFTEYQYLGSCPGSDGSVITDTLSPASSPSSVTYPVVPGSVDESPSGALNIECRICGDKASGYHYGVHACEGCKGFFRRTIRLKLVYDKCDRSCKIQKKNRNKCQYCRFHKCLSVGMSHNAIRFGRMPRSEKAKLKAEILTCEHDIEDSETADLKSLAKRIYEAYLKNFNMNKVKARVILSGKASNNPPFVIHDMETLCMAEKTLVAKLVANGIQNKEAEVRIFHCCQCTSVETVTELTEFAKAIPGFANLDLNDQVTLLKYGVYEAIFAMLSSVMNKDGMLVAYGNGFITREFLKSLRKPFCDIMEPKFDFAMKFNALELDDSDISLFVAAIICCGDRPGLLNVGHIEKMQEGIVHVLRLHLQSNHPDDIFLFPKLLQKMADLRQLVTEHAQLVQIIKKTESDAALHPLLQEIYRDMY
As to the kind of experiment: Human PPARα Reporter Assay (luciferase, Indigo Biosciences). To be noted: antagonist mode, reporter cells, overnight incubation. How it is done: Human PPARα Reporter Assay The screening of test compounds for agonist or antagonist activities against human PPARα receptors was performed using a commercial kit, Human PPARα Reporter Assay System (Indigo Biosciences, Cat. #IB00111). This nuclear receptor assay system utilizes proprietary non-human mammalian cells engineered to provide constitutive, high-level expression of Human PPARα. Because these cells incorporate a PPARα-responsive luciferase reporter gene, quantifying expressed luciferase activity provides a sensitive surrogate measure of PPARα activity in the treated cells. The primary application of this reporter assay system is in the screening of test samples to quantify any functional activity, either agonist or antagonist, that they may exert against human PPARα. […] Briefly, reporter cells are dispensed into wells of the assay plate and then immediately dosed with test compounds. Following an overnight incubation, the treatment media is discarded and Luciferase Detection Reagent (LDR) is added. The intensity of light emission from the ensuing luciferase reaction provides a sensitive measure that is directly proportional to the relative level of PPARα activation in the reporter cells.
For orientation: Reporter assays use an easily measured gene product as a stand-in for the process of interest.

A further test has as its target T3, human PPAR β/δ (Homo sapiens, UniProt Q03181).
T3 construct: host or cells: engineered reporter cells (analogous to the PPARα kit)
T3 sequence (Q03181 1-441): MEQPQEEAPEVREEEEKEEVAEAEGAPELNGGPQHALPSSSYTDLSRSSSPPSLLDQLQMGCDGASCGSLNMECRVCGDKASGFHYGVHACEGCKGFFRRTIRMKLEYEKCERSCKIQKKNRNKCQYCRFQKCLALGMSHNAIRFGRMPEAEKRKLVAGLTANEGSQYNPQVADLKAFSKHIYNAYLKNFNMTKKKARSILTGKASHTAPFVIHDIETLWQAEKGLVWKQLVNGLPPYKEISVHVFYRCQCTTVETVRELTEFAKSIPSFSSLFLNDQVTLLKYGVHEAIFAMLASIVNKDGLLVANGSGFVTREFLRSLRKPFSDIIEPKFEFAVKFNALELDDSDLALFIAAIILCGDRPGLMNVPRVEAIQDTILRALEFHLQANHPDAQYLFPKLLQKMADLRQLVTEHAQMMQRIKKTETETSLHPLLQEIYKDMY
As to the kind of experiment: Human PPAR β/δ reporter assay (luciferase, Indigo Biosciences kit). The following applies: antagonist mode, agonist at ~EC80; read-out: PPARδ Luciferase IC50. How it is done: as §1, §2

[1] abbreviates: antagonist mode, agonist at ~EC80, read-out: PPARγ.

The structures appear in SMILES notation. Like-named read-outs stand apart in the source and are kept apart here.

Regarding `CCOc1ccc(-c2ccc(CCCc3nn(-c4ccccc4F)c(=O)n3-c3ccc(C(F)(F)F)cc3)cc2)cc1CC(=O)O` [Example 36, 2-(4-ethoxy-4′-(3-(1-(2-fluorophenyl)-5-oxo-4-(4-(trifluoromethyl)phenyl)-4,5-dihydro-1H-1,2,4-triazol-3-yl)propyl)-[1,1′-biphenyl]-3-yl)acetic acid], the IC50 on human PPAR γ (setting [1]) was 79000 nM.
On to `CCOc1ccc(-c2ccc(CCCc3nn(-c4ccc(C(F)(F)F)cc4Cl)c(=O)n3-c3ccccc3F)cc2)cc1CC(=O)O` [Example 33, 2-(4-ethoxy-4′-(3-(4-(2-fluorophenyl)-5-oxo-1-(2-chloro-4-(trifluoromethyl)phenyl)-4,5-dihydro-1H-1,2,4-triazol-3-yl)propyl)-[1,1′-biphenyl]-3-yl)acetic acid], for which the IC50 on Human PPARα was 138 nM; on human PPAR β/δ it was 746 nM; at human PPAR γ (setting [1]) it was 32300 nM.
As for `CCCOc1ccc(-c2ccc(CCCc3nn(-c4ccc(C(F)(F)F)cc4)c(=O)n3C3CC3)cc2)cc1CC(=O)O` [Example 17, 2-(4′-(3-(4-cyclopropyl-5-oxo-1-(4-(trifluoromethyl)phenyl)-4,5-dihydro-1H-1,2,4-triazol-3-yl)propyl)-4-propoxy-[1,1′-biphenyl-]-3-yl)acetic acid], the IC50 was 43 nM at Human PPARα, 485 nM at human PPAR β/δ and 30700 nM at human PPAR γ (setting [1]).
As to `CCOc1ccc(-c2ccc(CCCc3nn(-c4ccc(C(F)(F)F)cc4)c(=O)n3-c3cc(F)ccc3F)cc2)cc1CC(=O)O` [Example 22], the IC50 against Human PPARα was 88 nM; at human PPAR β/δ, 61 nM; on human PPAR γ (setting [1]) it was 44500 nM.
On the same counts, the results for `CCOc1ccc(-c2cccc(CCCc3nn(-c4ccc(C(F)(F)F)cc4)c(=O)n3C(C)C)c2)cc1CC(=O)O` [Example 31] are 199 nM, 742 nM and 56900 nM.
Compound `CCOc1ccc(-c2ccc(CCCc3nn(-c4ccc(C(F)(F)F)cc4)c(=O)n3-c3ccccc3OC)cc2)cc1CC(=O)O` [Example 26] yielded an IC50 at human PPAR γ of 14900 nM.
For the compound `CCOc1ccc(-c2ccc(CCCc3nn(-c4ccc(C(F)(F)F)cc4)c(=O)n3-c3ccccc3F)cc2C)cc1CC(=O)O` [Example 9, 2-(4-ethoxy-4′-(3-(4-(2-fluorophenyl)-5-oxo-1-(4-(trifluoromethyl)phenyl)-4,5-dihydro-1H-1,2,4-triazol-3-yl)propyl)-2′-methyl-[1,1% biphenyl]-3-yl)acetic acid], the IC50 against Human PPARα was found to be 250 nM; at human PPAR β/δ, 312 nM; at human PPAR γ (setting [1]), 39800 nM.
On the same counts, the results for `CCOc1ccc(-c2ccc(CCCc3nn(-c4ccc(C(F)(F)F)cc4)c(=O)n3C3CCCC(C)C3)cc2)cc1CC(=O)O` (stereo not drawn) [Example 6] are 135 nM, 154 nM and 18100 nM.
On the same counts, the results for `CCOc1ccc(-c2ccc(CCCc3nn(-c4ccc(OC(F)(F)F)cc4)c(=O)n3C3CCCCC3)cc2)cc1CC(=O)O` [Example 8, 2-(4′-(3-(4-cyclohexyl-5-oxo-1-(4-(trifluoromethoxy)phenyl)-4,5-dihydro-1H-1,2,4-triazol-3-yl)propyl)-4-ethoxy-[1,1% biphenyl]-3-yl)acetic acid] are 29 nM, 505 nM and 27100 nM.
Taken in the same sequence, the figures for `CCOc1ccc(-c2ccc(CCCc3nn(-c4ccc(C(F)(F)F)cc4)c(=O)n3CC(C)C)cc2)cc1CC(=O)O` [Example 20] were 150 nM, 363 nM and 32900 nM.
For `CCOc1ccc(-c2ccc(CCCc3nn(-c4ccc(C(F)(F)F)cc4)c(=O)n3-c3ccccc3F)cc2)cc1C(=O)O` [Example 32, 4-ethoxy-4′-(3-(4-(2-fluorophenyl)-5-oxo-1-(4-(trifluoromethyl)phenyl)-4,5-dihydro-1H-1,2,4-triazol-3-yl)propyl)-[1,1′-biphenyl]-3-carboxylic acid], the IC50 at human PPAR γ (setting [1]) came to 63200 nM.
Regarding `CCCOc1ccc(-c2ccc(CCCc3nn(-c4ccc(C(F)(F)F)cc4)c(=O)n3-c3ccccc3F)cc2)cc1CC(=O)O` [Example 39, 2-(4-propoxy-4′-(3-(4-(2-fluorophenyl)-5-oxo-1-(4-(trifluoromethyl)phenyl)-4,5-dihydro-1H-1,2,4-triazol-3-yl)propyl)-[1,1′-biphenyl-]-3-yl)acetic acid], the figures for the IC50 on Human PPARα, at human PPAR β/δ and at human PPAR γ (setting [1]) were 111 nM, 34 nM and 20000 nM, respectively.
Taken in the same sequence, the figures for `COc1ccc(-c2ccc(CCCc3nn(-c4ccc(C(F)(F)F)cc4)c(=O)n3C3CC3)cc2)cc1CC(=O)O` [Example 14, 2-(4′-(3-(4-cyclopropyl-5-oxo-1-(4-(trifluoromethyl)phenyl)-4,5-dihydro-1H-1,2,4-triazol-3-yl)propyl)-4-methoxy-[1,1′-biphenyl]-3-yl)acetic acid] were 108 nM, 697 nM and 53100 nM.
On the same counts, the results for `CCOc1ccc(-c2ccc(CCCc3nn(-c4ccc(C(F)(F)F)cc4)c(=O)n3-c3ccccc3F)cc2C)cc1C(=O)O` [Example 11, 4-ethoxy-4′-(3-(4-(2-fluorophenyl)-5-oxo-1-(4-(trifluoromethyl)phenyl)-4,5-dihydro-1H-1,2,4-triazol-3-yl)propyl)-2′-methyl-[1,1% biphenyl-]-3-carboxylic acid] are 42 nM, 124 nM and 24800 nM.
Taken in the same sequence, the figures for `COc1ccc(-c2ccc(CCCc3nn(-c4ccc(C(F)(F)F)cc4)c(=O)n3Cc3ccccc3F)cc2)cc1CC(=O)O` [Example 15, 2-(4′-(3-(4-(2-fluorobenzyl)-5-oxo-1-(4-(trifluoromethyl)phenyl)-4,5-dihydro-1H-1,2,4-triazol-3-yl)propyl)-4-methoxy-[1,1′-biphenyl]-3-yl)acetic acid] were 38800 nM, 8360 nM and > 100000 nM.
As to `CCOc1ccc(-c2ccc(CCCc3nn(-c4ccc(C(C)(C)C)cc4)c(=O)n3-c3c(Cl)cccc3Cl)cc2)cc1CC(=O)O` [Example 28], the IC50 is 165 nM on Human PPARα, 789 nM at human PPAR β/δ and 32900 nM on human PPAR γ (setting [1]).
Consider `CCCn1c(CCCc2ccc(-c3cccc(NS(=O)(=O)c4ccccc4)n3)cc2)nn(-c2ccc(C(F)(F)F)cc2)c1=O` [Example 13, N-(6-(4-(3-(5-oxo-4-propyl-1-(4-(trifluoromethyl)phenyl)-4,5-dihydro-1H-1,2,4-triazol-3-yl)propyl)phenyl)pyridin-2-yl)benzenesulfonamide], for which the IC50 was 182 nM at Human PPARα, 1160 nM on human PPAR β/δ and > 100000 nM at human PPAR γ (setting [1]).

For the origin of these results see US9776976B2, “Triazolone compounds and uses thereof” (Inception 2, Inc., priority 2013, dated 2017).
